Bridges are numbered along the chain shown (N, C = ends). Where no end group is shown, it is not given here. [ ]: non-standard residue; d: D form. The star is where a group is joined. 1Nal = N[C@@H](Cc1cccc2ccccc12)C(=O)O; Acm = CC(=O)NC*
Tests used:
BKS db/db mice = assay: T2D-induced liver damage in BKS db/db mice (leptin receptor deficiency); format: in vivo; conditions: Losartan alone, 25 µg/g in drinking water, 7 weeks
Protocol: Leptin receptor deficiency in diabetes-susceptible strain BKS db/db: Homozygous C57BLKS (BKS) inbred db/db mice (16-weeks old males; Envigo) were randomized to receive in drinking water an angiotensin receptor blocker (Losartan 25 µg/g body weight) or vehicle as tap water (n=25). In addition, two groups of 8 losartan-treated mice were randomized to receive S1 peptide (10 µg/g body weight) or JAK1/2 inhibitor (Baricitinib 3 µg/g body weight) via intraperitoneal injection 3 days per week for 7 weeks. All groups were monitored during 7 weeks of treatment. Heterozygous littermates (db/m; n=10) were used as non-diabetic, non-obese control group.
Mice were housed in ventilated cages (2-4 mice per cage) with usual bedding material and environmental enrichment in a conventional temperature-controlled room (20-22°C) with 12 h light/dark cycle and free access to water and food. Blood glucose (glucometer; NovaPro, Menarini Diagnostics) and body weight levels were monitored once weekly during the follow-up period. […]
At the end of the studies, serum levels of glucose, triglycerides (TG), total cholesterol, high-density lipoprotein cholesterol (HDL), low-density lipoprotein cholesterol (LDL), alanine aminotransferase (ALT or GPT), aspartate aminotransferase (AST), alkaline phosphatase (ALP) and albumin were determined by automated procedures (Roche Cobas autoanalyzer). […]

[1] = system: mouse hepatocyte cell line; assay: In vitro NAFLD model: hepatocytes exposed to palmitic acid (Oil red O staining, real-time PCR); format: cell-based; conditions: induced by palmitic acid 400 µM, 6 hours
Protocol: Immortalized mouse hepatocyte cell line (kindly provided by Dr. Valverde, IIBm Alberto Sols, Madrid) were cultured in Dulbecco's Modified Eagle Medium (DMEM; D6546, Sigma-Aldrich) containing 10% FBS, 100 U/mL penicillin, 100 µg/mL streptomycin and 2 mM L-glutamine (Sigma-Aldrich) and used between 2nd-8th passages. Cells were incubated for 24 hours in medium with 0.5% FBS, pre-treated for 90 min with optimal doses of peptides (59 µM S1 and 25 µM liPS5) and then stimulated for additional 2-16 h with palmitic acid (P-0500, Sigma-Aldrich; stock solution diluted in fatty acid-free BSA to 5 mM) at a final concentration of 400 µM. Cell viability was confirmed by the 3-(4,5-dimethylthiazol-2-yl)-2,5-diphenyltetrazolium bromide tetrazolium (MTT) assay. Lipid accumulation in hepatocytes was determined by Oil red O staining.
(§1) Total RNA from mouse liver and hepatocytes was extracted using TRI Reagent (Molecular Research Center). Complementary DNA was produced via reverse transcription using High Capacity cDNA Reverse Transcription Kit (Applied Biosystems). The gene expression of mouse genes was determined in duplicate by quantitative real-time PCR using predesigned TaqMan gene expression assays (Applied Biosystems) or Premix ExTaq (Takara). The results for each sample were normalized to the 18S rRNA housekeeping expression, and data expressed as fold increases versus chow diet (in vivo studies) or basal conditions (in vitro studies).

[2] = system: ApoE-/- mice fed with HFD; assay: NAFLD induced by high-fat diet (HFD) in ApoE-/- mice; format: in vivo; conditions: 8 weeks of treatment
Protocol: In the second model, apolipoprotein E deficient mice (ApoE-/-, males, 10-12 weeks old) were administered high-fat diet (HFD, TD.88137, Envigo) for 8 weeks and treated with vehicle (n=8) or SOCS1-derived peptides (S1, n=6; liPS5, n=6; cPS5, n=6; cPS5Nal, n=6) at the dose of 4µg/g (in 200 µL) via intraperitoneal injection 3 days per week. A group of ApoE-/- mice under standard diet (Chow, n=6) was included as control.
Mice were housed in ventilated cages (2-4 mice per cage) with usual bedding material and environmental enrichment in a conventional temperature-controlled room (20-22°C) with 12 h light/dark cycle and free access to water and food. Blood glucose (glucometer; NovaPro, Menarini Diagnostics) and body weight levels were monitored once weekly during the follow-up period. At the end of the intervention studies, mice were anaesthetized (ketamine 100 mg/kg and xylazine 10 mg/kg) and euthanized, and blood and tissue samples were collected.
Hepatic lipids were extracted as previously described. Commercial colorimetric kits were used to measure concentrations of total cholesterol (STA-384, Cell Biolabs) and TG (11528, Biosystems), and values were normalized by tissue weight and mg of protein (BCA assay), respectively.
At the time of harvest, liver samples were fixed in 10% buffered formalin, processed for paraffin-embedding and cut (3-4 µm) or embedded in OCT compound and cryosectioned into 7 µm slices. Deparaffinized sections were stained with hematoxylin/eosin and Masson's trichrome to evaluate the histological NAFLD activity score (NAS) considering steatosis, lobular inflammation, ballooning and fibrosis, as previously described or were stained with picrosirious red to assess collagen deposition and fibrotic areas. Periodic Acid Schiff staining was performed for glycogen deposition assessment. Cryosections were stained with Oil red O/ hematoxylin to detect lipid accumulation.
For immunohistochemistry, liver sections were deparaffinized and […] through graded xylene and ethanol. After antigen retrieval (0.01 M citrate buffer pH 6 for 20 min) and blockade of endogenous peroxidase (3% H2O2 in methanol for 30 min) and nonspecific binding (8% host serum for 30 min), slides were incubated overnight at 4°C with primary antibodies against phosphorylated STAT1 (P-STAT1, Tyr701; Thermo Fisher Scientific Cat# 44-376G, RRID:AB_2533642), P-STAT3 (Ser727, Cell Signalling Technology Cat# 9134, RRID:AB_331589), P-nuclear factor erythroid 2-related factor 2 (NRF2, Ser40; Abcam Cat# ab76026, RRID:AB_1524049) and F4/80 monocytes/macrophages (Bio-Rad Cat# MCA497R, RRID:AB_323279). After rinsing in PBS, samples were incubated with respective secondary antibodies conjugated with either horseradish peroxidase or biotin (followed by avidin-biotin complex reagent). Immunoreactive cells were then visualized by the addition of peroxidase substrates (3, 3-diaminobenzidine or 3-amino-9-ethylcarbazole; DAKO) and counterstained with hematoxylin.
All the histological evaluations were conducted in a blinded fashion. Positive staining was quantified in at least 2 sections per mice using Image-Pro Plus software (Media Cybernetics) and expressed as percentage or number of positive cells per area.
as §1

[3] = 4µg/g intraperitoneal 3 days per week, vs vehicle

Compound	hepatoprotective effect (BKS db/db mice)	expression of inflammatory gene CCL2 (real-time PCR) [1]	expression of inflammatory gene IL-6 (real-time PCR) [1]	expression of scavenger receptor CD36 (real-time PCR) [1]	gene expression of CCL5 in mouse liver [2]	gene expression of CCl2 in mouse liver [2]	gene expression of CXCL10 in mouse liver [2]	gene expression of IL-6 in mouse liver [2]	gene expression of TNFα in mouse liver [2]	gene expression of scavenger receptor CD36 in mouse liver [2]	ballooning (liver sections) [2, 3]	hepatic steatosis (liver sections, hematoxylin/eosin, Oil red O) [2, 3]	inflammation (liver sections, F4/80) [2, 3]
CCCCc1nc(Cl)c(CO)n1Cc1ccc(-c2ccccc2-c2nn[nH]n2)cc1 [Losartan]	did not produce an hepatoprotective effect	–	–	–	–	–	–	–	–	–	–	–	–
DTC(Acm)RQT(Nal1)RKH (lactam bridge D1-K9) (DTC(Acm)RQT[1Nal]RKH; lactam 1-9) [cPS5Nal, cyclic PS5 with additional non-natural residue 1-naphthylalanine]	–	downregulated	downregulated	downregulated	effectively prevented	effectively prevented	effectively prevented	effectively prevented	effectively prevented	effectively prevented	marked decrease	marked decrease	marked decrease

Source: patent EP4360643A1, “SOCS1 DERIVED PEPTIDES FOR USE IN THE TREATMENT OF LIVER DISEASES” (Fundacion Instituto De Investigacion Sanitaria Fundacion …, priority 2022, dated 2024)
